# What was measured:
# [1] = tested on: HBT 3477 tumors; assay: Microvessel density (CD31) in tumors; assay type: in vivo, mice
# Experimental: (§1) Cellular immunopathology groups. Unless otherwise noted, groups consisted of 2 mice, each bearing 2 tumors, for a total of 4 tumors analyzed at each time point. […] The tumors were removed, cut in half, frozen in optimal cutting temperature (O.C.T). medium, and stored at about −70° C. until sectioning (10-μm sections). All time points were evaluated for apoptosis by terminal deoxynucleotidyl transferase-mediated dUTP nick end labeling (TUNEL, Cavrieli, et al. J. Cell Bio., 119: 493–501 (1992)) analysis, and selected time points (untreated, 1,5 and 6 days) were assessed for differences in proliferation rate (Ki67) and microvessel density (CD31).
# (§2) Proliferation and microvessel density Analyses. 10-μm sections of tumors from untreated and mice treated with cRGD pentapeptide, RIT and CMRIT method and sacrificed at 1, 5 and 6 days after treatment were fixed for 10 minutes in ice-cold acetone, rinsed in PBS, and briefly incubated in methanol with 0.6% H2O2 (5 minutes). After rinsing in PBS, sections were blocked for 10 minutes with 10% goat serum and 1% bovine serum albumin in PBS. Mouse anti-Ki67 MAb (Pharmingen, clone B56) was applied in blocking solution (6.25 μg/ml) and the slides were incubated at room temperature for 2 hours, followed by rinsing in PBS. Goat anti-mouse rhodamine-labeled or goat anti-mouse Cy-3-labeled antibody was applied (Jackson ImmunoResearch Laboratories, Inc, West Grove, Pa., 1:100) and the slides were incubated for 1 hour at room temperature. After rinsing in PBS the sections were incubated for 1 hour at room temperature with rat anti-mouse CD31 antibody (Pharmingen, 1:100), followed by rinsing in PBS and a subsequent 1 hour incubation with goat anti-rat FITC-labeled antibody (Pharmingen, 1:50). After rinsing in PBS, the slides were counterstained with DAPI (0.4 μg/ml) and mounted in Biomeda gel mount (Fisher) under coverslips. Quantitation of Ki67 was performed using an Olympus microscope at X1000 magnification for assessment of proliferation. The mean total number of Ki67-positive cells/field in a tumor was determined by counts from 6 fields per tumor chosen randomly by DAPI stain. Microvessel density was determined by counting the number of CD31-stained vessels per random field at X400 magnification. Any endothelial cell or cell cluster positive for CD31, which was separate from an adjacent cluster, was counted as one microvessel. Six randomly chosen fields per tumor section were used to establish an average for each tumor. Average microvessel density for a treatment group was determined by averaging the values from 4 tumors/group.
# [2] = tested on: αvβ3-expressing M21 melanoma cells; settings: stated in words; cited from earlier work
# [3] = tested on: HBT 3477 tumors; assay: Tumoricidal effect in HBT 3477 breast cancer xenografts; assay type: in vivo, mice; settings: for Cure (number of mice): worst response of 2-tumored mice, 84 days
# Experimental: Mice. Female athymic Balb/c nu/nu mice (7–10 week old; Harlan Sprague Dawley, Inc., Frederick, Md.) were maintained according to University of California animal care guidelines. HBT 3477 cells (3.0×10^6), harvested in log phase, were injected subcutaneously into one side of the abdomen for therapy studies (except where noted) and into both sides for immunopathology studies. Injection of RIT was by tail vein and cyclo-(Arg-Gly-Asp-D-Phe-[N-Me]-Val) was delivered by intraperitoneal (i.p.) injection. “Day 0” was designated as the time of RIT injection or, for first cRGD pentapeptide injection, for cRGD pentapeptide only group. Mice were sacrificed by cervical dislocation for immunopathology studies at the times indicated, when tumor burden exceeded allowed limits, or at 84 days for therapy studies.
# Control (No RIT) Treatment groups.
# High Dose RIT Treatment groups.
# Low Dose RIT Treatment groups. […] These doses were given on day 0, 1 hour prior to RIT, followed by 5 more doses on days 2, 4, 6, 8, and 10 (30 mice, all with 1 tumor each).
# Tumoricidal effect. Tumors were measured with calipers in 3 orthogonal diameters 3 times per week. Tumor volume was calculated using the formula for hemiellipsoids (DeNardo et al. Clin. Cancer Res., 3:71–79 (1997)). Initial tumor volume was defined as the volume on the day before treatment. Tumors that completely regressed were considered to have a volume of zero. […] For mice bearing two tumors with differing responses, tumor response was described according to both tumor responses. Mice dying prior to 30 days from toxicity were excluded from tumor response results.
# (§3) Statistical Analysis. Statistical analysis of mortality data for RIT and CMRIT method treated mice was performed using a Fisher Exact test with StatExact software to determine if mortality was different. Statistical analysis of therapy data was done using a Cochran Mantel Haenszel test to evaluate effect of RIT dose on outcome for RIT and CMRIT method groups. Comparison of cure rates to all other responses for RIT vs. CMRIT method groups was done by Fisher Exact test, with the best tumor response used for 2-tumored animals for statistical purposes. Statistical differences between immunopathology groups at the different time points were assessed by analysis of variance (ANOVA) (Fisher PLSD) using STATview software as appropriate, with p<0.05 considered significant.
# [4] = Toxicity: mortality, weights and blood counts; assay type: in vivo; settings: comparison as stated in the sentence
# Experimental: Toxicity. Weights and blood counts were measured 2–3 times per week for 12 weeks post-injection or until death. Blood samples were collected from tail veins using 2 μL microcapillary pipets. Samples from mice within a dose group were pooled, and diluted 1:200 in phosphate-buffered saline (PBS, 0.9% saline/10 mM sodium phosphate, pH 7.6) for red blood cell (RBC) counts; 1:100 in 1% (w/v) ammonium oxalate for platelet counts; or 1:20 in 3% (w/v) acetic acid for white blood cell (WBC) counts.
# as §3
# [5] = tested on: endothelial cells in HBT 3477 tumors; assay: TUNEL/CD31 analysis of endothelial apoptosis in tumors; assay type: in vivo, mice
# Experimental: as §1
# TUNEL analysis of total and endothelial apoptosis. […] Slides were rinsed, dipped briefly in 4,6-diamidino-2-phenylindole (DAPI, 0.2 μg/ml) for background nuclear stain, rinsed again and mounted, followed by storage in the dark at about 4° C. until quantitation.
# Quantitation of total apoptosis and endothelial apoptosis. An Olympus microscope equipped with a Chroma Pinkle Filter Set (Chroma, Brattleboro, Vt.) with excitation filters for UV, FITC and rhodamine and dual/triple bandpass filters to allow simultaneous viewing of multiple wavelengths, was used to quantify 6 randomly chosen X600 fields (150,000 μm^2/field) in non-necrotic regions of each section. […]
# [6] = tested on: HBT 3477 cells; assay: Attachment of HBT 3477 cells to vitronectin; assay type: cell-based, human; settings: read-out: IC50 for blocking attachment of HBT 3477 cells to vitronectin
# Text: Cell Lines. HBT 3477, a human breast adenocarcinoma cell line, was obtained from Bristol-Myers Squibb Pharmaceutical Research Institute (Seattle, Wash.). Greater than 70% of HBT 3477 cells stain intensely with L6. In HBT 3477 cells, bcl-2 is expressed and p53 is mutant, with a nonsense mutation in exon 10, resulting in a deletion in the region of the p53 protein that functions in tetramerization and in detection of double-stranded DNA breaks. HBT 3477 cells express functional αvβ5 integrin, but not αvβ3 integrin, as attachment to vitronectin is blocked by αvβ5-specific P1F6 antibody, but is not blocked by αvβ3-specific LM609 antibody.
# [7] = tested on: HBT 3477 tumors; assay: Proliferation (Ki67) in tumors; assay type: in vivo, mice
# Experimental: as §1, §2
# [8] = tested on: HBT 3477 tumors; assay: TUNEL analysis of total cell apoptosis in tumors; assay type: in vivo, mice; settings: 1 day after treatment
# Experimental: as §1
# TUNEL analysis of total and endothelial apoptosis. Tumors were cut into 10-μm sections onto Fisher superplus slides (Fisher, Pittsburgh, Pa.), air-dried for 1 hour and frozen at about −70° C. until TUNEL analysis with ApopTag Red kit (rhodamine used as label, Intergen, Purchase, N.Y.) following the manufacturer's instructions subsequent to fixation for about 10 minutes in 1% paraformadehyde. After TUNEL, the slides were rinsed, and incubated overnight at 4° C. with a rat anti-mouse MAb against CD31 at 1:100 dilution (Pharmingen, San Diego, Calif.) to identify endothelial cells. Slides were rinsed and incubated for 1 hour with an anti-rat antibody linked to FITC (1:50 dilution) (Pharmingen). Slides were rinsed, dipped briefly in 4,6-diamidino-2-phenylindole (DAPI, 0.2 μg/ml) for background nuclear stain, rinsed again and mounted, followed by storage in the dark at about 4° C. until quantitation.
# Quantitation of total apoptosis and endothelial apoptosis. An Olympus microscope equipped with a Chroma Pinkle Filter Set (Chroma, Brattleboro, Vt.) with excitation filters for UV, FITC and rhodamine and dual/triple bandpass filters to allow simultaneous viewing of multiple wavelengths, was used to quantify 6 randomly chosen X600 fields (150,000 μm^2/field) in non-necrotic regions of each section. Fields were chosen to cover the entire viewing area using DAPI label, which typically included about 300–350 cells. Total apoptosis was determined by the average number of positive nuclei per field for each tumor while endothelial apoptosis was determined using the same fields with a dual bandpass filter to count cells labeled by both FITC (CD31) and rhodamine (TUNEL). Fields were chosen from apparently non-necrotic areas of tumor sections, as HBT 3477 xenografts typically grow quickly in nude mice, doubling their volumes in 6 days, resulting in central necrosis of untreated tumors. As TUNEL may label necrotic cells, though less intensely, this strategy was chosen over a completely random process.
compound,measurement,setting,value
CC(C)[C@H]1C(=O)N[C@@H](CCCN=C(N)N)C(=O)NCC(=O)N[C@@H](CC(=O)O)C(=O)N[C@H](Cc2ccccc2)C(=O)N1C [cyclo-(Arg-Gly-Asp-D-Phe-[N-Me]-Val)],"Microvessel density, average number ± SE of CD31 positive regions","[1]; Day 1, six fields per tumor at 400X",12 ± 2
same,"Microvessel density, average number ± SE of CD31 positive regions",[1]; Day 5,20 ± 4
same,IC50 for αvβ3-expressing M21 melanoma cells,[2],low micromolar range
same,effect on tumor growth,"[3]; 6×250 μg doses given every other day, in words",No apparent effect
same,cures,"[3]; no RIT, 6 × 250 μg i.p.",0%
same,CR complete regression (number of mice),"[3]; no RIT, worst response",0
same,NR no regression (number of mice),"[3]; no RIT, worst response",18
same,PR partial regression (number of mice),"[3]; no RIT, worst response",0
same,Cure (number of mice),[3]; no RIT,no cures
same,Cure (number of mice),"[3]; no RIT, listed as cRGD pentapeptide",0
same,"mortality or toxicity, in words",[4],No increased mortality or toxicity
same,endothelial apoptosis,[5]; 1 day after treatment,2.5±0.5 cells/field
same,endothelial apoptosis,[5]; 5 days after treatment,2.4±0.7 cells/field
same,IC50,[6],~5 µM
same,"Proliferating cells, average no. of Ki67-positive cells","[7]; Day 1, six fields per tumor at 1000X",14 ± 2 f
same,"Proliferating cells, average no. of Ki67-positive cells",[7]; Day 5,13 ± 1 f
same,"total cell apoptosis, percent of cells",[8],4.6%
same,TUNEL-positive tumor and endothelial cells (total cells),"[8]; X600, about 350 cells/field",16.2±1.89 cells/field
